The text below walks through data of publication PMC10866072, “Design, synthesis, molecular modelling and biological evaluation of novel 6-amino-5-cyano-2-thiopyrimidine derivatives as potent anticancer agents against leukemia and apoptotic inducers” (Journal of Enzyme Inhibition and Medicinal Chemistry, 2024).

The term IC50 denotes the point on the concentration scale where inhibition reaches its midpoint. As a reminder, the GI50 is the concentration that inhibits growth by half.

The subject of one data set is mutant EGFRT790M. Further details: method as in PMID 32959865. Particulars: cited from earlier work.
Another data set concerns caspase-3 in HepG-2. Set-up: method as in PMID 32959865. Particulars: cited from earlier work.
Data set [1] concerns HCT-116, HepG-2, MCF-7, and A549 cells. Further details: method as in PMID 32959865. To be noted: cited from earlier work.
The test system of the next data set is EGFRWT. Further details: method as in PMID 32959865. Particulars: cited from earlier work.
In another data set the test system is tumour cell lines. Further details: method as in PMID 32027179. To be noted: broad spectrum antitumor activity, cited from earlier work.
A further data set deals with SW480. Further details: method as in PMID 32645482. To be noted: cited from earlier work.
A further data set relates to GES1. Further details: method as in PMID 27771599. To be noted: cited from earlier work.
Another data set deals with MGC-803 cell line. Set-up: method as in PMID 27771599. To be noted: cited from earlier work.
In a further data set the test system is HeLa. Further details: method as in PMID 31525523. Particulars: cited from earlier work.
For a further data set, the system named is A549. Set-up: method as in PMID 31525523. To be noted: cited from earlier work.
Data set [2] is described as follows: MTT cytotoxicity on normal cells. To be noted: human, WI-38 cells (normal lung fibroblasts), WI-38 normal cells, mean ± SD of three experiments, read-out: IC50 (cytotoxic activity). In kind it is cell-based. The protocol:
The American Type Culture Collection provided WI-38 cells (normal lung cells). The cells were grown in DMEM with 10% heat-inactivated FBS (Hyclone), 10 µg/ml of insulin (Sigma), and 1% penicillin-streptomycin. The remaining chemicals and reagents were all from Sigma or Invitrogen. The MTT test was used to evaluate cytotoxicity, as described previously. Graph pad Prism software (San Diego, CA) was used to estimate the 50% inhibitory concentration (IC50) from dose response curve graphic plots for each conc.

With `CCCCSC1=NC(c2ccccc2)=C(C#N)C(Nc2ccccn2)N1` (stereo not drawn) [Compound XIV], the IC50 with mutant EGFRT790M was 4.03 µM; in the data set with EGFRWT, 0.09 µM. Moreover, the “increase of caspase-3 level compared to the control” value in the data set on caspase-3 in HepG-2 is 6.5 times. The “activity relative to erlotinib” value in data set [1] is recorded as 4.5- to 8.4 fold.
As for `N#CC1=C(c2ccc(F)cc2)N=C(N/N=C/c2c[nH]c3ccccc23)NC1N1CCOCC1` (stereo not drawn) [Compound XVII], in the data set with tumour cell lines, the “TGI (total growth inhibition)” value was 28.66 µM. Besides, the GI50 in the data set with tumour cell lines (read-out: GI50 (median growth inhibition)) is 6.15 µM.
For the molecule `NC1=NC(NC(=O)Nc2ccc(Cl)c(C(F)(F)F)c2)=CC(c2ccccc2)N1` (stereo not drawn) [XIX], the IC50 in the data set on SW480 is 11.1 µM.
With `C/C(=N\Nc1nc(Sc2ccccc2)nc2c1nnn2-c1ccccc1)c1ccccc1O` [XXII], the half-inhibitory concentration (IC50) in the data set on GES1 was 56.2 µM; with MGC-803 cell line it was 0.87 µM.
As to `COc1cc(C2=NC3N=C(C)C(C(C)=O)C(c4ccc([N+](=O)[O-])cc4)N3N2)cc(OC)c1OC` (stereo not drawn) [XXI], the IC50 in the data set on HeLa was 0.75 µM; with A549, 1.02 µM.
As for `C#Cc1cccc(Nc2ncnc3cc(OCCOC)c(OCCOC)cc23)c1` [erlotinib], in data set [2], the IC50 worked out at 22.8 ± 0.65 µM.
